In brackets after ≈: the same amount, converted by molar mass.

In data set [1] the test system is green rice leafhoppers (Nephotettix cincticeps Uhler). Kind of data set: Mortality test with green rice leafhoppers by topical application method. Conditions: Nephotettix cincticeps, in Oryza sativa, 24 h; for LD50: read-out: LD50 (median lethal dose), topical, green rice leafhoppers; for mortality at 10 ng: read-out: Pesticidal effect, green rice leafhopper. As to the method:
Mortality test with green rice leafhoppers (Nephotettix cincticeps Uhler) by topical application method
Then, the insects were kept at 25° C. with access to rice plant seedlings. The insects were used in groups of 15 individuals each.

Data set [2] is described as follows: Toxicity test with water-fleas. Type of data set: in vivo, Daphnia pulex. Conditions: water, 25±1° C., read-out: TLm, Water-flea (6 hrs.). The protocol:
Toxicity test with water-fleas (Daphnia pulex)
An acetone solution of one of the test compounds as mentioned in Table 10 and Tween-20 (the same surfactant as mentioned hereinbefore) was prepared. To 100 ml of water in a high-walled dish (9 cm in diameter, 7 cm deep) was added the above acetone solution. The mixture was stirred thoroughly to prepare an aqueous solution containing the test compound in a predetermined concentration. This was used as a test water. Twenty water-fleas (Daphnia pulex) were released into each test water which was maintained at 25±1° C. After 6 hours, the water-fleas were examined for deaths. The TLm (median tolerance limit, ppm) was determined.

The subject of data set [3] is rice stem borers (Chilo suppressalis Walker). Nature of the data set: Mortality test with rice stem borers by topical application method. Type of data set: in vivo. As to conditions: 24 h; for mortality at 0.001 mg: read-out: Pesticidal effect, rice stem borer. As to the method: Mortality test with rice stem borers (Chilo suppressalis Walker) by topical application method
Using a microsyringe, 0.5 μl of the above solution was applied to the thoracic abdominal region of each final-instar larva of rice stem borer (Chilo suppressalis Walker). […] The test larvae were used in groups of 20 individuals each.

Data set [4] concerns small brown planthoppers (Laodelphax striatellus Fallen). Nature of the data set: Utility Example-3: spray on rice plants, small brown planthoppers. Conditions: 7 ml/pot, 24 hours. It counts as in vivo. The protocol:
A 30% emulsifiable concentrate of each of the cis- and trans-isomers and a 50:50 mixture of the cis- and trans-isomers of Compound (1) and of Compound (2) as prepared by the procedure described in Formulation Example-1 was diluted with water to a concentration of 80 ppm as active compound. Rice plants 4 weeks after sowing in pots (each pot 6 cm in diameter, 7 seedlings) were sprayed with the above diluted solution at the rate of 7 ml/pot and, after drying in the air, each pot was covered with a wire-mesh cage. Then, 30 adult small brown planthoppers (Laodelphax striatellus Fallen) were released into the cage. The pots were kept in a constant-temperature chamber at 25° C. […] In all groups, the mortality was not less than 90%.

Data set [5] can be described thus: Fish toxicity safety factor (TLm divided by maximum concentration in cover water). More on the design: species or system carp. Conditions: in vivo, TLm / maximum concentration in cover water at LC50 application (100 l per 10 ares, 5 cm depth). A digest of the protocol: (§1)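 Calculated index: carp TLm (ppm) divided by the maximum compound concentration expected in paddy cover water. That concentration assumes 100 l of solution at the pest LC50 applied per 10 ares onto 5 cm deep cover water, all of it entering the water.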

The nature of data set [6]: Fish toxicity test with killifish. It counts as in vivo, Orizias latipes. Conditions: water, killifish, 25±1° C., read-out: TLm (48 hrs.). A digest of the protocol: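 Test compound dispensed from acetone solution into water at set concentrations; ten aerated-water killifish (~0.25 g, ~2.5 cm) held at 25±1° C. Deaths scored after 48 hours; TLm (median tolerance limit, ppm) determined.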

A further data set deals with fish. Nature of the data set: Fish toxicity safety factor (TLm divided by maximum concentration in cover water). More on the design: species or system carp. The gist of the method: as §1
Data set [7] concerns tobacco cutworm (Prodenia litura). Kind of data set: Utility Example-5: spray on soy bean leaves, tobacco cutworm larvae. It counts as in vivo. As to conditions: 48 h, 2 days. As to the method:
An acetone solution of one of the test compounds as mentioned in Table 13 and Tween-20 (the same surfactant as mentioned hereinbefore) was prepared. This acetone solution was diluted with water to prepare a solution containing the test compound in a predetermined concentration. Leaves of soy bean in pots were sprayed with the above diluted solution at the rate of 20 ml/pot and, after one day, ten 3-instar larvae of tobacco cutworm (Prodenia litura) were released on the leaves. The pots were kept in a constant-temperature chamber at 25° C.

For data set [8], the system named is guppies (Lebistes reticulatus). Nature of the data set: Fish toxicity test with guppies. Type of data set: in vivo. As to conditions: Table 1; 48 hrs. A digest of the protocol:
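Ten female guppies, 3–4 months old, held at 20 °C in water containing surfactant and test compound added in acetone solution. TLm (median tolerance limit, ppm) determined.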

The nature of data set [9]: Acute toxicity test in rat by the oral route. Type of data set: in vivo. Conditions: in vivo, male rat, in olive oil, after 7 days. An excerpt: Acute toxicity test in rat by the oral route

As for `CC1(C)[C@@H](C=C(Cl)Cl)[C@@H]1C(=O)OCc1cccc(Oc2ccc(Cl)cc2)c1` (relative stereo) [Compound (1) trans-, 3-(4-chlorophenoxy)benzyl trans-2,2-dimethyl-3-(2,2-dichlorovinyl)cyclopropanecarboxylate], in [1], the mortality at 0.01 µg/female turned out to be 100%, the mortality at 0.1 µg/female turned out to be 100%, the mortality at 1 µg/female was found to be 100% and the LD50 was determined as 0.68 mg/kg. In addition, the LC50 at 6 h in data set [2] is greater than 40 µg/mL. Moreover, in data set [3], the mortality at 1 µg/larva was found to be 85% and the mortality at 10 µg/larva amounted to 100%. Also, the mortality at 80 ppm in [4] is no less than 90%. Besides, the selectivity ratio in data set [5] stood at 3.5. The LC50 at 48 h in data set [6] was greater than 10 µg/mL.

Turning to `C#CC(OC(=O)[C@@H]1[C@H](C=C(Cl)Cl)C1(C)C)c1cccc(Oc2ccc(Cl)cc2)c1` (relative stereo) [Compound (2) cis-], in data set [1], the mortality at 0.01 µg/female is 100%, the mortality at 0.1 µg/female turned out to be 100%, the mortality at 1 µg/female was 100% and the LD50 was determined as 0.44 mg/kg. The LC50 at 6 h in [2] is greater than 40 µg/mL. In data set [3], this compound came in with a mortality at 1 µg/larva of 100% and a mortality at 10 µg/larva of 100%. The compound also came in with a mortality at 80 ppm in [4] of no less than 90%. Further, the selectivity ratio in data set [5] turned out to be 2.1. Besides, the LC50 at 48 h in data set [6] is greater than 10 µg/mL.

As for `C#CC(OC(=O)[C@@H]1[C@@H](C=C(Cl)Cl)C1(C)C)c1cccc(Oc2ccc(Cl)cc2)c1` (relative stereo) [Compound (2) trans-], in [1], the mortality at 0.01 µg/female was 100%, the mortality at 0.1 µg/female came out at 100%, the mortality at 1 µg/female was determined as 100% and the LD50 came to 0.45 mg/kg. In data set [2], the LC50 at 6 h was greater than 40 µg/mL. For the same compound, in data set [3], the mortality at 1 µg/larva stood at 100% and the mortality at 10 µg/larva was 100%. Besides, the mortality at 80 ppm in data set [4] is no less than 90%. Further, the selectivity ratio in data set [5] is greater than 28. Further, in the data set with fish, the “concentration which kills 50% of pests as fraction of concentration which kills 50% of fish” value is listed as “less than 1/28”. In addition, in data set [6], the LC50 at 48 h is greater than 10 µg/mL.

Regarding `C#CC(OC(=O)C1C(C=C(Cl)Cl)C1(C)C)c1cccc(Oc2ccc(Cl)cc2)c1` (stereo not drawn) [Compound (2) cis-/trans- = 50:50, 3-(4-chlorophenoxy)-α-ethynylbenzyl 2,2-dimethyl-3-(2,2-dichlorovinyl)cyclopropanecarboxylate], in data set [1], the mortality at 0.01 µg/female amounted to 100%, the mortality at 0.1 µg/female was found to be 100%, the mortality at 1 µg/female was found to be 100% and the LD50 came to 0.44 mg/kg. Further, the mortality at 10 ng in [1] turned out to be 100%. Further, the LC50 at 6 h in [2] was greater than 40 µg/mL. In addition, in [3], the mortality at 1 µg/larva came to 100%, the mortality at 10 µg/larva is 100% and the mortality at 0.001 mg was determined as 100%. Besides, in data set [7], the mortality at 6.5 ppm came to 100% and the mortality at 13 ppm was 100%. In [8], the “Toxicity to fish TLm, guppy” value was greater than 10 ppm. The compound further yielded an LD50 at 168 h in data set [9] greater than 3000 mg/kg. The compound further yielded a mortality at 80 ppm in data set [4] of no less than 90%. The “Fish toxicity safety factor” value in the data set on fish (TLm / maximum concentration in cover water at LC50 application (100 l per 10 ares, 5 cm depth)) was 7.4. The LC50 at 48 h in data set [6] was greater than 10 µg/mL.

For `CC1(C)C(C=C(Cl)Cl)C1C(=O)OCc1cccc(Oc2ccccc2)c1` (stereo not shown) [Compound (B), Permethrin], in data set [1], the mortality at 0.01 µg/female stood at 80%, the mortality at 0.1 µg/female is 100%, the mortality at 1 µg/female worked out at 100% and the LD50 was found to be 1.25 mg/kg. Moreover, the mortality at 10 ng in data set [1] came to 80%. Also, in [3], the mortality at 1 µg/larva is 95%, the mortality at 10 µg/larva is 100% and the mortality at 0.001 mg was determined as 95%. In [7], this compound registered a mortality at 6.5 ppm of 60% and a mortality at 13 ppm of 90%. The “Toxicity to fish TLm, guppy” value in data set [8] is recorded as less than 0.5 ppm. Further, the LD50 at 168 h in data set [9] amounted to 300 mg/kg. Also, in [5], the selectivity ratio was 0.01. For the same compound, the LC50 at 48 h in [6] is 0.04 µg/mL (≈ 0.102 µM).

The values are drawn from patent publication US4389412A, “Substituted cyclopropanecarboxylic acid esters and pesticidal compositions containing the same as active ingredient” (priority 1979, dated 1983).
